From ChEMBL document CHEMBL1201862, “PubChem BioAssay data set” (2004) come the findings set out here.

Test systems include SK-OV-3; UO-31; SK-MEL-28; UACC-62; HL-60; A498; MCF7; OVCAR-5; HOP-92; MOLT-4; PC-3; ACHN; RPMI-8226; Hs-578T; MDA-MB-231; CAKI-1; SW-620; NCI-H460; HCC 2998; SR.
Holding throughout (assay): growth of human tumour cells (NCI), 48 h

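Each compound was tested at five concentrations against cells in 96-well plates for 48 hours. Here, GI50 denotes the concentration required for 50% inhibition of growth.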 The source made the active and inactive calls. Cut-off read from the data, not from the text of the source: active = GI50 up to about 1.1 µM and inactive = higher. Where a SMILES comes first, the peptide text is derived from it. [ ]: non-standard residue; d: D form. Ac5c = NC1(C(=O)O)CCCC1

In the case of `COc1ccc(/N=C/N(C)C)c(C)c1`, the GI50 is 18.7 µM (inactive) in the experiment with SK-OV-3; 26.1 µM (inactive) in the experiment on UO-31; 12.6 µM (inactive) in the experiment on SK-MEL-28; 7.08 µM (inactive) in the experiment on UACC-62; 0.13 µM (active) in the experiment with HL-60; 18.1 µM (inactive) in the experiment on A498. Besides, the GI50 in the experiment with MCF7 was 8.26 µM (inactive); in the experiment on OVCAR-5, 20.5 µM (inactive); in the experiment with HOP-92, 10.5 µM (inactive); in the experiment with MOLT-4 it was 2.6 µM (inactive); with PC-3 it was 3.17 µM (inactive); with ACHN, 18.7 µM (inactive). The GI50 in the experiment with RPMI-8226 is > 100 µM (inactive); with Hs-578T it was 1.52 µM (inactive); in the experiment on MDA-MB-231, 5.83 µM (inactive); with CAKI-1 it was 35.6 µM (inactive).
On to `Clc1ccc(/C=C/c2nc(Cl)c(-c3ccc(Cl)cc3)c(Cl)n2)cc1`, for which the GI50 was 68.7 µM (inactive) with SW-620; > 100 µM (inactive) in the experiment with SK-OV-3; 13.6 µM (inactive) with UO-31; > 100 µM (inactive) with SK-MEL-28; > 100 µM (inactive) in the experiment on UACC-62; 14.3 µM (inactive) in the experiment on HL-60. In addition, the GI50 in the experiment on A498 is 50.6 µM (inactive); in the experiment on NCI-H460 it was 61 µM (inactive); with MCF7, 45.5 µM (inactive); with OVCAR-5, > 100 µM (inactive); with HOP-92 it was > 100 µM (inactive); with MOLT-4, 32.5 µM (inactive). Moreover, the GI50 in the experiment on PC-3 was 42.6 µM (inactive); with ACHN, 35.2 µM (inactive); in the experiment with RPMI-8226, 23.8 µM (inactive); in the experiment on Hs-578T, > 100 µM (inactive); in the experiment on MDA-MB-231, 67 µM (inactive); in the experiment with CAKI-1, 74.8 µM (inactive).
As for `Clc1ccc2nc3[nH]nc(Cl)c3nc2c1`, the GI50 is 72.6 µM (inactive) in the experiment on SW-620; 41.9 µM (inactive) with SK-OV-3; 22.8 µM (inactive) with UO-31; 84.7 µM (inactive) in the experiment with SK-MEL-28; 45.3 µM (inactive) in the experiment on UACC-62; 38.4 µM (inactive) in the experiment with HCC 2998. The GI50 with A498 was 46.2 µM (inactive); in the experiment on NCI-H460, 40.1 µM (inactive); in the experiment with MCF7, 59.8 µM (inactive); in the experiment on OVCAR-5, 48.1 µM (inactive); in the experiment with MOLT-4 it was 30.5 µM (inactive); with PC-3, 34.6 µM (inactive). Moreover, the GI50 in the experiment on ACHN was 52.8 µM (inactive); in the experiment on RPMI-8226 it was 47.4 µM (inactive); in the experiment on Hs-578T it was 22.7 µM (inactive); in the experiment with MDA-MB-231, 57.7 µM (inactive); in the experiment on CAKI-1, 49.1 µM (inactive).
For `CN(c1ccc(Cl)cc1)S(=O)(=O)c1ccccc1`, the GI50 in the experiment on SW-620 is 85.5 µM (inactive); in the experiment on SK-OV-3 it was 78.5 µM (inactive); in the experiment on UO-31, 42 µM (inactive); with SK-MEL-28, 54.8 µM (inactive); in the experiment with UACC-62 it was 48.4 µM (inactive); with HL-60, 15 µM (inactive). Moreover, the GI50 is 84.1 µM (inactive) in the experiment with HCC 2998; 43.1 µM (inactive) in the experiment with NCI-H460; 52.4 µM (inactive) in the experiment with MCF7; 52.8 µM (inactive) with OVCAR-5; 28 µM (inactive) with MOLT-4; 21.6 µM (inactive) in the experiment with PC-3. Also, the GI50 with ACHN was > 100 µM (inactive); in the experiment with RPMI-8226 it was 42.3 µM (inactive); with Hs-578T it was > 100 µM (inactive); with SR it was 32.1 µM (inactive); in the experiment on MDA-MB-231, 35.4 µM (inactive); with CAKI-1, 51.3 µM (inactive).
Turning to `O=C1CSCC(=O)Nc2ccccc2N1`, the GI50 with SW-620, in the experiment with SK-OV-3, in the experiment with UO-31, in the experiment with SK-MEL-28, in the experiment on UACC-62 and with HL-60 was > 100 µM (inactive) each time. Moreover, the GI50 in the experiment with A498, in the experiment with NCI-H460, in the experiment on OVCAR-5, in the experiment with HOP-92, in the experiment with MOLT-4 and in the experiment with PC-3 was > 100 µM (inactive) throughout. The GI50 in the experiment on ACHN, in the experiment on RPMI-8226, in the experiment on Hs-578T, in the experiment with SR, in the experiment on MDA-MB-231 and with CAKI-1 was > 100 µM (inactive) throughout.
`O=[N+]([O-])c1ccc2c(c1)c(OCc1ccccc1)nn2Cc1ccccc1`: the GI50 in the experiment on SW-620 was > 100 µM (inactive); in the experiment on SK-OV-3, > 100 µM (inactive); in the experiment with UO-31, > 100 µM (inactive); with SK-MEL-28, 72.6 µM (inactive); in the experiment with UACC-62, 80.4 µM (inactive); in the experiment on HL-60 it was > 100 µM (inactive). Also, the GI50 in the experiment with HCC 2998 was 58.9 µM (inactive); in the experiment on A498, 33 µM (inactive); in the experiment on NCI-H460, > 100 µM (inactive); in the experiment with MCF7, > 100 µM (inactive); in the experiment on OVCAR-5, > 100 µM (inactive); in the experiment with MOLT-4, 57 µM (inactive). Moreover, the GI50 in the experiment with PC-3 was 63.1 µM (inactive); in the experiment with ACHN, 43.8 µM (inactive); with RPMI-8226, > 100 µM (inactive); in the experiment on Hs-578T, 52.8 µM (inactive); in the experiment on MDA-MB-231 it was > 100 µM (inactive); with CAKI-1 it was > 100 µM (inactive).
As to `Cc1ccccc1N/N=C1\C(=O)Nc2ccccc21`, the GI50 in the experiment on SW-620, with SK-OV-3, in the experiment with UO-31, in the experiment on SK-MEL-28, in the experiment on UACC-62 and in the experiment on HL-60 was > 100 µM (inactive) each time. Besides, the GI50 with HCC 2998, in the experiment on NCI-H460, in the experiment with MCF7, in the experiment on OVCAR-5, in the experiment with MOLT-4 and in the experiment with PC-3 was > 100 µM (inactive) each time. Also, the GI50 with ACHN, with RPMI-8226, with Hs-578T, in the experiment on SR, in the experiment with MDA-MB-231 and with CAKI-1 was > 100 µM (inactive) each time.
For `CC(=O)NC1C(OCC(=O)NCCNc2ccc([N+](=O)[O-])c3[nH]c4ccccc4c(=O)c23)C(O)C(CO)OC1(C)OCc1ccccc1` (stereo not drawn), the GI50 with SW-620, in the experiment on SK-OV-3, in the experiment on UO-31, with UACC-62, in the experiment with HCC 2998 and in the experiment on A498 was > 100 µM (inactive) each time. The GI50 was 50.4 µM (inactive) in the experiment with NCI-H460; > 100 µM (inactive) in the experiment with MCF7; > 100 µM (inactive) in the experiment with OVCAR-5; > 100 µM (inactive) in the experiment on MOLT-4; > 100 µM (inactive) in the experiment with PC-3; > 100 µM (inactive) in the experiment on ACHN. In addition, the GI50 with RPMI-8226, with Hs-578T, in the experiment on MDA-MB-231 and in the experiment with CAKI-1 was > 100 µM (inactive) throughout.
On to `CCCCSC1=N/C(=C\c2ccco2)C(=O)N1`, for which the GI50 was 35.8 µM (inactive) in the experiment with SW-620; > 100 µM (inactive) with SK-OV-3; 54 µM (inactive) in the experiment with UO-31; 42.5 µM (inactive) with SK-MEL-28; 42.1 µM (inactive) in the experiment on UACC-62; 18.2 µM (inactive) with HL-60. For the same molecule, the GI50 in the experiment on HCC 2998 was 30 µM (inactive); in the experiment with A498, 24.2 µM (inactive); in the experiment with NCI-H460, 39.5 µM (inactive); in the experiment on MCF7 it was 0.687 µM (active); in the experiment on OVCAR-5 it was > 100 µM (inactive); with MOLT-4 it was 36.1 µM (inactive). In addition, the GI50 with PC-3 is 46.1 µM (inactive); with ACHN, > 100 µM (inactive); with RPMI-8226 it was 34.1 µM (inactive); with Hs-578T, 29.9 µM (inactive); with MDA-MB-231 it was 99.8 µM (inactive); in the experiment on CAKI-1, 74.5 µM (inactive).
For `Cc1c(/C=N\NC(=S)N2CCN(C(=S)N/N=C\c3c(C)n(C)n(-c4ccccc4)c3=O)CC2)c(=O)n(-c2ccccc2)n1C`, the GI50 in the experiment on SW-620 is 33.2 µM (inactive); in the experiment with SK-OV-3, > 100 µM (inactive); with UO-31, > 100 µM (inactive); in the experiment with UACC-62 it was 32.9 µM (inactive); in the experiment with HCC 2998 it was 45.4 µM (inactive); in the experiment with A498, 65.3 µM (inactive). The GI50 in the experiment on NCI-H460 was 42 µM (inactive); in the experiment with OVCAR-5, > 100 µM (inactive); in the experiment on HOP-92, 40.9 µM (inactive); in the experiment on MOLT-4, 37.4 µM (inactive); in the experiment on PC-3, 32.9 µM (inactive); in the experiment with ACHN it was 21.2 µM (inactive). Besides, the GI50 in the experiment on Hs-578T is 33 µM (inactive); in the experiment on SR it was 47.9 µM (inactive); in the experiment on MDA-MB-231, 24 µM (inactive); in the experiment with CAKI-1, 82.6 µM (inactive).
For the molecule `COC(=O)C1(NC(=O)C(C)NC(=O)C(CCCCN)NC(=O)C(CC(C)C)NC(C)=O)CCCC1` (stereo not drawn) (Ac-LKA[Ac5c]-OMe; configuration not given here), the GI50 with SW-620, in the experiment with SK-OV-3, in the experiment with UO-31, in the experiment with SK-MEL-28, in the experiment on HL-60 and in the experiment with HCC 2998 was > 100 µM (inactive) in each case. Further, the GI50 in the experiment on NCI-H460, in the experiment on MCF7, in the experiment with MOLT-4, in the experiment with PC-3, with ACHN and with RPMI-8226 was > 100 µM (inactive) each time. In addition, the GI50 with Hs-578T, with SR and in the experiment with MDA-MB-231 was > 100 µM (inactive) in each case.
